# Values of other authors in patent US20210353513A1, “STABILIZED OIL-IN-WATER EMULSION” (priority 2018, published 2021).
structure (smiles),measurement,value
"CCCCCCCCCC(=O)OCC(COC(=O)CCCCCCCCC)OC(=O)CCCCCCCCC [Tricaprin (s, β), Tricaprin]",Density (g/cm^3) at 20° C.,1.05 g/mL
